Here are results for 12 compounds from US7973039B2, “Sulfonyl amino cyclic derivatives and use thereof” (Merck Serono SA, priority 2004, dated 2011).

One test has as its target metalloelastase (MMP-12) (Homo sapiens, UniProt P39900). The experiment in a line: MMP-12 enzyme inhibition assay (coumarin-labelled peptide substrate McaPLGLDpaAR). In kind it is biochemical. The following applies: fluorogenic substrate McaPLGLDpaAR, 37° C., 2 hours. The protocol:
(§1) Compounds of the invention were tested to assess their activities as inhibitors of MMP-1, MMP-2, MMP-9 and MMP-12.
(§2) Stock solutions were made up as follows: Assay Butter: 100 mM Tris-HCl pH 7.6 containing 100 mM NaCl, 10 mM CaCl2, and 0.05% Brij 35.
Substrate: 0.4 mM McaPLGLDpaAR (from Bachem) (0.437 mg/ml) stock solution in 100% DMSO (stored at −20° C.). Dilute to 8 μM in assay butter. […]
(§3) Test Compounds were prepared initially as 10 mM compound solution in 100% DMSO, diluted to 1 mM in 100% DMSO, then serially diluted 3-fold in 100% DMSO across columns 1-10 of a 96-well microtitre plate Assay concentration range, 100 μM (column 1) to 5.1 nM (column 10).
(§4) The assay was performed in a total volume of 100 μL per well in 96-well microtitre plates. Activated enzyme (20 μL) was added to the wells followed by 20 μL of assay butter. Appropriate concentrations of test compounds dissolved in 10 μL of DMSO were then added followed by 50 μL of McaPLGLDpaAR (8 μM, prepared by dilution of DMSO stock in assay butter). For each as say ten concentrations of test compound were examined in duplicate. Control wells lack either enzyme or test compound. The reactions were incubated at 37° C. for 2 hours. The fluorescence at 405 nm was measured immediately with an SLT Fluostar fluorometer (SL T Labinstruments GmbH, Grödig, Austria) using 320 nm excitation, without stopping the reaction.
(§5) The effect of the test compound was determined from the dose response curve generated by the 10 duplicate concentrations of inhibitor. The IC50 (the concentration of compound required to give a 50% decrease in enzyme activity) was obtained by fitting data to the equation, Y=a+((b−a)/(1+(c/X)^d)). (Y=inhibition achieved for a particular dose; X=the dose in nM; a=minimum y or zero % inhibition; b=maximum y or 100% inhibition; c=is the IC50; d=is the slope). The result was rounded to one significant figure.
Compounds of the invention were tested for inhibitory activity against metalloelastase (MMP-12) in an assay using a coumarin-labelled peptide substrate, (7-methoxycoumarin-4-yl)acetyl-Pro-Leu-Gly-Leu-(3-[2,4dinitrophenyl]-L-2,3-diaminopropionyl)-Ala-Arg-NH2 (McaPLGLDpaAR) (Knight et al, 1992, above). The protocol for this assay was as described for the MMP-9 assay above.

A further test concerns the target T1, collagenase (MMP-1) (Homo sapiens, UniProt P03956).
T1 sequence (P03956 100-469): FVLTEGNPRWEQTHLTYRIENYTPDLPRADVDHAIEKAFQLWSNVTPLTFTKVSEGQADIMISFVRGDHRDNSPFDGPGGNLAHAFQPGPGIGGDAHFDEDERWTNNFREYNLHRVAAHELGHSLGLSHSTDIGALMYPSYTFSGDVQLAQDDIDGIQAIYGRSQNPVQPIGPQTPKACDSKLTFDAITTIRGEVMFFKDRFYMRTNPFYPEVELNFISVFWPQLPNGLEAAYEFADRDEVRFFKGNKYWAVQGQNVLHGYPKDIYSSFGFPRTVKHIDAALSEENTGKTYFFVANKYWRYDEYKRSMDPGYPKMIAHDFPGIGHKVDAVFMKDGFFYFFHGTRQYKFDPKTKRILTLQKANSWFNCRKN
The experiment in a line: MMP-1 enzyme inhibition assay (coumarin-labelled peptide substrate McaPLGLDpaAR). The format is biochemical. The following applies: fluorogenic substrate McaPLGLDpaAR, 37° C., 2 hours. The protocol: as §1, §2
Substrate: 0.4 mM McaPLGLDpaAR (from Bachem) (0.437 mg/ml) stock solution in 100% DMSO (stored at −20° C.). Dilute to 8 μM in assay butter.
Enzyme: Recombinant human 92 kDa gelatinase (MMP-9; APMA (4-aminophenyl mercuric acetate)—activated if necessary) appropriately diluted in assay butter.
as §3, §4, §5
Compounds of the invention were tested for inhibitory activity against collagenase (MMP-1) in an assay using a coumarin-labelled peptide substrate, (7-methoxycoumarin-4-yl)acetyl-Pro-Leu-Gly-Leu-(3-[2,4-dinitrophenyl]-L-2,3diaminopropionyl)-Ala-Arg-NH2 (McaPLGLDpaAR) (Knight et al, 1992, above). The protocol for this assay was as described for the MMP-9 assay above.

Test [1] has as its system IL-2-induced peritoneal recruitment of lymphocytes. The experiment in a line: IL-2-induced peritoneal recruitment of lymphocytes. The format is in vivo, C3H/HEN mice. The conditions noted are these: Mus musculus, Lymphocyte; mice, route po, given 15 min prior to IL-2 (20 μg/kg i.p.), lymphocytes counted 24 h after IL-2; read-out: ED50 in IL-2-induced peritoneal recruitment of lymphocytes model. Here is the method:
Administration of IL-2 intraperitoneally causes migration of lymphocytes into the intraperitoneal cavity. This is a model for the cellular migration that occurs during inflammation.
C3H/HEN mice (Elevage Janvier, France) were intraperitoneally injected with IL-2 (Serono Pharmaceutical Research Institute, 20 μg/kg, in saline).
Compounds of the invention were suspended in 0.5% carboxymethylcellulose (CMC)/0.25% tween-20 and were administered by s.c. or p.o. route (10 ml/kg) 15 min prior to administration of IL-2.
Twenty-four hours after administration of IL-2, peritoneal white blood cells were collected by 3 successive lavages of the peritoneal cavity with 5 ml phosphate buffered saline (PBS)-1 mM EDTA (+4° C.). The suspension was centrifuged (1700 g×10 min at +4° C.). The resulting pellet was suspended in 1 ml PBS-1 mM EDTA.
Lymphocytes were identified and counted using a Beckman/Coulter counter.
The animals were divided into 6 groups (6 mice each group):
Group 1: (baseline) received 0.5% CMC/0.25% tween-20 (vehicle of compound of the invention) and saline (vehicle of IL-2);
Group 2: (control IL-2) received 0.5% CMC/0.25% tween-20 and injection of IL-2;
Group 3: Experimental group (Compound of the invention Dose 1) received a compound of the invention and injection of IL-2; […]
Inhibition of lymphocyte recruitment was calculated as follows: […]

Sequence of metalloelastase (MMP-12) (P39900 106-470): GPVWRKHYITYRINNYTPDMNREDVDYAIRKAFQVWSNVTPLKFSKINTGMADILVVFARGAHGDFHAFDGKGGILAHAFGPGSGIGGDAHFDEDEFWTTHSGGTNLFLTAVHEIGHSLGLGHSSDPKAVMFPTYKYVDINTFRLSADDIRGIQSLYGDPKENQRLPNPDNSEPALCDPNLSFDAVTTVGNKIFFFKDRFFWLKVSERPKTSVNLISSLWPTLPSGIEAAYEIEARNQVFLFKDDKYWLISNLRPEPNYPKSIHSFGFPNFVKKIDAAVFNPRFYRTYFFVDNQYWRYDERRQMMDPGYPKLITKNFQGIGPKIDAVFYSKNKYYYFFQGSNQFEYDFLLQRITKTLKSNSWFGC

On to `CCCCCC#CC(CS(=O)(=O)N1CCC(c2ccc(OC)cc2)CC1)N(O)C=O` (centres unmarked) [Example 19], for which the IC50 is 0.018 µM against metalloelastase (MMP-12) and above 5 µM at collagenase (MMP-1).

On to `O=CN(O)C(C#Cc1ccccc1)CS(=O)(=O)N1CCN(c2ccc(F)cc2)CC1` (centres unmarked) [Example 4, 1-({[4-(4-fluorophenyl)-1-piperazinyl]sulfonyl}methyl)-3-phenyl-2-propynyl(hydroxy)formamide], for which the 50% inhibitory concentration (IC50) is 0.058 µM against metalloelastase (MMP-12) and above 5 µM against collagenase (MMP-1).

For the compound `COc1ccc(N2CCN(S(=O)(=O)CC(C#Cc3cccnc3)N(O)C=O)CC2)cc1` (centres unmarked) [Example 9, hydroxy[1-({[4-(4-methoxyphenyl)-1-piperazinyl]sulfonyl}methyl)-3-(3-pyridinyl)-2-propynyl]formamide], the values for the IC50 against metalloelastase (MMP-12) and against collagenase (MMP-1) were 0.048 µM and above 5 µM, respectively.

On to `CCCCCC#CC(CS(=O)(=O)N1CCN(c2ccc(F)cc2)CC1)N(O)C=O` (centres unmarked) [Example 7, 1-({[4-(4-fluorophenyl)-1-piperazinyl]sulfonyl}methyl)-2-octynyl(hydroxy)formamide], for which the ED50 in test [1] is 2 mg/kg. The values for the half-inhibitory concentration (IC50) against metalloelastase (MMP-12) and at collagenase (MMP-1) were 0.02 µM and above 5 µM, respectively.

With `CCN(CC)CC#CC(CS(=O)(=O)N1CCC(c2ccc(OC)cc2)CC1)N(O)C=O` (centres unmarked) [Example 37, [4-(diethylamino)-1-({[4-(4-methyloxyphenyl)piperidin-1-yl]sulfonyl}methyl)but-2-yn-1-yl]hydroxyformamide], the IC50 against metalloelastase (MMP-12) is 0.006 µM; on collagenase (MMP-1), above 5 µM.

`O=CN(O)C(C#Cc1ccc(-c2ncon2)cc1)CS(=O)(=O)N1CCN(c2ccc(F)cc2)CC1` (centres unmarked) [Example 27, {1-({[4-(4-fluorophenyl)piperazin-1-yl]sulfonyl}methyl)-3-[4-(1,2,4-oxadiazol-3-yl)phenyl]prop-2-yn-1-yl}hydroxyformamide]: the values for the IC50 on metalloelastase (MMP-12) and against collagenase (MMP-1) were 0.095 µM and above 5 µM, respectively.

Take `COc1ccc(N2CCN(S(=O)(=O)CC(C#Cc3cccc(OC)c3)N(O)C=O)CC2)cc1` (centres unmarked) [Example 10, hydroxy[3-(3-methoxyphenyl)-1-({[4-(4-methoxyphenyl)-1-piperazinyl]sulfonyl}methyl)-2-propynyl]formamide]: the IC50 was 0.033 µM on metalloelastase (MMP-12) and above 5 µM against collagenase (MMP-1).

With `O=CN(O)C(C#CCN1CCCC1)CS(=O)(=O)N1CCN(c2ccc(F)cc2)CC1` (centres unmarked) [Example 64, [1-({[4-(4-fluorophenyl)piperazin-1-yl]sulfonyl}methyl)-4-pyrrolidin-1-ylbut-2-yn-1-yl]hydroxyformamide], the figures for the IC50 against metalloelastase (MMP-12) and against collagenase (MMP-1) were 0.04 µM and above 5 µM, respectively.

Consider `CCCCCC#CC(CS(=O)(=O)N1CCCN(c2ccc(OCC)cc2)CC1)N(O)C=O` (centres unmarked) [Example 61, [1-({[4-(4-ethyloxyphenyl)-1,4-diazepan-1-yl]sulfonyl}methyl)oct-2-yn-1-yl]hydroxyformamide], for which the IC50 is 0.024 µM against metalloelastase (MMP-12) and above 5 µM against collagenase (MMP-1).

On to `O=CN(O)C(C#CCc1ccccc1)CS(=O)(=O)N1CCN(c2ccc(F)cc2)CC1` (centres unmarked) [Example 6, 1-({[4-(4-fluorophenyl)-1-piperazinyl]sulfonyl}methyl)-4-phenyl-2-butynyl (hydroxy)formamide], for which the IC50 is 0.021 µM at metalloelastase (MMP-12) and above 5 µM on collagenase (MMP-1).

For the compound `CC(C)(CC#Cc1ccccc1)C(CS(=O)(=O)N1CCN(c2ccc(F)cc2)CC1)N(O)C=O` (centres unmarked) [Example 36, [1-({[4-(4-fluorophenyl)piperazin-1-yl]sulfonyl}methyl)-2,2-dimethyl-5-phenylpent-4-yn-1-yl]hydroxyformamide], the IC50 at metalloelastase (MMP-12) is 0.02 µM; against collagenase (MMP-1), above 5 µM.

Regarding `O=CN(O)C(C#Cc1ccc2c(c1)OCO2)CS(=O)(=O)N1CCN(c2ccc(F)cc2)CC1` (centres unmarked) [Example 1, 3-(1,3-benzodioxol-5-yl)-1 ({[4-(4-fluorophenyl)-1-piperazinyl]sulfonyl}methyl)-2-propynyl(hydroxy)formamide], the ED50 in test [1] was determined as 0.8 mg/kg. In addition, the IC50 against metalloelastase (MMP-12) is 0.046 µM; on collagenase (MMP-1), above 5 µM.

What is called IC50 is the midpoint of a concentration-inhibition curve. Read a low IC50 as greater potency. As usually defined, the ED50 is the midpoint of the dose-response relation.
